Measurements as given in patent US20230303506A1, “COMPOSITIONS AND METHODS FOR THE PREVENTION AND/OR TREATMENT OF MITOCHONDRIAL DISEASE, INCLUDING FRIEDREICH'S ATAXIA” (Stealth BioTherapeutics Inc., priority 2019, published 2023).
Entries after “also recorded” stand apart in the source; their conditions may differ. Where two headings read alike, the source gives them in different places.

Assays:
[1] = system: frataxin deficient fibroblasts (GM03665); test: cells; assay type: cell-based; conditions: for EC50: 10 mM BSO, 48 hrs, MTT
Nrf-2 = Nrf-2 Activation Assay (Nrf-2 Assay); assay type: cell-based, human; conditions: for activation of Nrf-2 pathway, in words: FIG. 7; for Nrf-2 Assay: Table 7, 1 μM compound, 24 hours, qPCR of Nrf-2 responsive genes
Method: This assay was developed internally and was designed to determine if the novel test compounds disclosed herein active Nrf-2 and thereby promote resolution of inflammation by the mechanism believed to be responsible for the activity of omaveloxolone.
Briefly, GM03665 Friedreich Ataxia patient fibroblasts were grown in 12 Well Plates (TC Cell+F) (Sarstedt, Numbrecht Germany), at a density of […] in DMEM/F12 (Gibco, ThermoFisher Scientific, Waltham, MA, USA) cell media supplemented with 10% FBS and 1% Pen/Strep. Cells were left to rest overnight at 37° C. in a humidified atmosphere with 5% CO2 to allow attachment of the cells to the culture plate. Before continuing assay visual inspection of each well was done by light microscopy to detect any possible bacterial and fungal contamination. […] After incubation, cell media was removed and total RNA from the cells was isolated using E.Z.N.A.® Total RNA Kit I (Omega Bio-tek, Norcross, Georgia, USA) spin columns, and first-strand cDNA synthesis was carried out using a High Capacity cDNA Reverse Transcription Kit (Applied Biosystems™, Foster City, CA) following the manufacturer's instructions. qPCR analysis of gene expression was performed by mixing SYBR® Green Master Mix (Applied Biosystems™) with synthesized cDNA and forward and reverse primers. […] (60 cycles), and 95° C. for 60 seconds, followed by melt curve analysis at 72-95° C., 0.3° C./sec. The relative expression levels for each gene were calculated with the ΔΔCt method and normalized to the expression of REEP5 and SNRPD3 genes.

HepG2 cells = test: Rotenone Oxygraph Assay (high-resolution respirometry of intact HepG2 cells); assay type: cell-based, human; conditions: for Percent increase in ATP (Rotenone Oxygraph Assay), Mean: Table 4, intact HepG2 cells, change in respiration rate; for Percent increase in ATP (Rotenone Oxygraph Assay), Mean / Rotenone Oxygraph Assay % Increase: 1 μM rotenone, compound 10 μM; for Rotenone Oxygraph Assay % Increase: Table 7
Method: The Oxygraph-2 k (O2k, OROBOROS INSTRUMENTS, Austria) was used for measurements of respiration of intact cells. The respirometry was performed in Dulbecco's Modified Eagle Medium (DMEM) high glucose without supplements. All experiments were performed at 37° C.
HepG2 cells (ATCC collection code HB-8065™) were cultured in 10 cm^2 culture dishes in DMEM high glucose medium supplemented with 10% fetal bovine serum (FBS) and 100 units/mL penicillin and 100 μg/mL streptomycin until approximately 90% confluence was reached. Immediately prior to performing the respirometric assay, the cells were washed with media without FBS, trypsinized and resuspended in DMEM high glucose without FBS.
The final concentration of intact cells in the O2k-chamber was 0.5·10^6/mL. After stabilization of respiration, the Complex I inhibitor, rotenone, at 1 μM final concentration was added to inhibit electron flux via Complex I. Then, compound to be tested was added at 10 μM final concentration, and the change in respiration rate of intact cells was monitored.

[2] = system: HepG2 human hepatocarcinoma cells; test: Rotenone ATP Assay (Complex I Assay); assay type: cell-based; conditions: for activity in both the BSO Assay and the Rotenone ATP Assay, in words: BSO Assay and Rotenone ATP Assay taken together; for Rotenone ATP Assay EC50, nM / EC50: HepG2, 50 micromolar rotenone, 60 minutes; for Complex I by-pass activity / restoring ATP production, in words: summary of rotenone assays
Method: This assay has been adapted from Haefeli R H, Erb M, Gemperli A C, Robay D, Courdier Fruh I, et al. (2011) NQO1-Dependent Redox Cycling of Idebenone: Effects on Cellular Redox Potential and Energy Levels. PLoS ONE 6(3): e17963. HepG2 human hepatocarcinoma cells were co-incubated with the electron transport chain Complex I toxin rotenone +/− compounds of interest and the corresponding effect on ATP synthesis was measured with a bioluminescent substrate.
In brief, HepG2 cells were plated at 25,000 cells per well in low glucose (1 gram/Liter) DMEM medium+10% fetal calf serum and incubated for 24 hours. The following day, the media was decanted and subsequently replaced with glucose free/serum free DMEM which has been supplemented with 50 micromolar rotenone and compound of interest. Serial dilutions of compound were prepared in 3× dilutions beginning at 25 micromolar. The cells were incubated for 60 minutes in a humidified tissue culture incubator. Following incubation, ATP levels were quantified via bioluminescent assay (Promega […] Glo Assay kit) and readings were captured on a standard microplate reader.
ATP bioluminescence is plotted versus the log of compound of interest and data were used to generate EC50 values. Curve fitting was performed using a sigmoidal dose response curve fit function (GraphPad Prism software).
Robustness of curve fit was assessed as a quality control measure, with an R squared value of at least 0.80 being required for a successful curve fit. Compounds of interest showing an increase in ATP bioluminescence relative to vehicle control were verified in an independent biological replicate of n=3 technical replicates per dose.
This assay is a direct measure of the ability of compounds of interest to restore ATP production under conditions of inhibition of Complex I of the mitochondrial electron transport chain. As the majority of ATP produced via the electron transport chain is thought to derive from Complex I activity, significant impairment in Complex I function has dire biological consequences. Of note, Complex I mutations are thought to drive pathophysiology in multiple mitochondrial diseases, including Leigh syndrome and Leber's Hereditary Optic Neuropathy (LHON), while diminished Complex I activity and the resultant attenuation of ATP production has been shown in neurodegenerative diseases, including Friedreich's Ataxia, Parkinson's Disease and Huntington's Disease.

GM03665 cells = test: RSL3 Toxicity Assay (RSL3 Assay); assay type: cell-based, human
Method: In brief, GM03665 cells (Coriell Institute) were seeded in 96-well plates (Sarstedt) in DMEM cell culture media containing 10% Fetal Bovine serum and 1% Penicillin-Streptomycin (Pen-Strep) antibiotic mix at the amount of 2×10^4/mL (100 μL or 2×10^3 cells per well). Cells were left to rest overnight at 37° C. in a humidified atmosphere with 5% CO2 to allow attachment of the cells to the culture plate. Test compounds were prepared as DMSO stocks (10 mM) and were serially diluted in cell culture media to obtain 2× working solutions. Cell media was discarded and replaced by 50 μL of test compound solutions or cell media with vehicle for control wells. Within 15 minutes, 2× working solution (4 μM) of 1S,3R-RSL3 (CAS #1219810-16-8, Sigma-Aldrich) (diluted from 5 mM DMSO stock in cell culture media) was added. Final reaction volume was 100 μL and final DMSO concentration in reaction was kept below 0.2% (v/v) and equal in all wells. Final RSL3 concentration was 2 μM and test compound final concentrations in reaction were up to 1000 nM. After 24 hours of incubation cell viability was assessed by MTT test. MTT (Sigma-Aldrich) solution 1 mg/mL in 1×PBS (pH=7,4) was prepared 1 hour before the assay and filtered through Filtropur S 0.2 filters (Sarstedt). Cell media with test compounds was discarded and 100 μL of MTT solution was added to cells. The plates were incubated for 2 hours at +37° C. Thereafter, the MTT solution was removed and 100 μL of isopropanol was added to dissolve sediment. Absorption at 570 and 650 nm was measured using Hidex Sense microplate reader.

lipoxygenase-15 enzyme = lipoxygenase-15 enzyme (Glycine max (Soybean) (Glycine hispida), UniProt P08170); test: Lipoxygenase-15 Assay (LO-15 Assay); conditions: reduced form of compounds

Compound	activity in BSO assay (protection from BSO induced cell death), in words [1]	activation of Nrf-2 pathway, in words (Nrf-2)	Nrf-2 Assay (Nrf-2)	activity in Rotenone Oxygraph Assay, in words (HepG2 cells)	Percent increase in ATP (Rotenone Oxygraph Assay), Mean (HepG2 cells)	Rotenone Oxygraph Assay % Increase (HepG2 cells)	activity in both the BSO Assay and the Rotenone ATP Assay, in words [2]	Rotenone ATP Assay EC50, nM ([2]; Table 7)	Complex I by-pass activity / restoring ATP production, in words [2]	RSL3 Assay EC50, Mean (GM03665 cells; Table 3, 2 μM RSL3, 24 hours, MTT, mean of at least three measurements, unit printed in Table 7)	RSL3 Assay EC50, nM (GM03665 cells; Table 7, 2 μM RSL3, 24 hours, MTT)	EC50 ([1]; Homo sapiens, Fibroblast, FA patient fibroblasts pretreated with compound, read-out: EC50 (nM) BSO Assay) [nM]	EC50 ([2]; Homo sapiens, 1 h, ATP bioluminescence, read-out: EC50 Rotenone ATP Assay) [nM]	activity in RSL3 assay (protection from RSL3 induced ferroptosis), in words (GM03665 cells)	EC50 ([1]; Table 7, FA patient fibroblasts, read-out: BSO Assay) [nM]	activity in LO-15 assay, in words (lipoxygenase-15 enzyme)	EC50 ([2]; ATP bioluminescence, read-out: EC50 Rotenone ATP Assay) [nM]	EC50 ([2]; Table 7, read-out: Rotenone ATP Assay EC50) [nM]	EC50 (GM03665 cells; Table 3, 2 μM RSL3, 24 hours, MTT, mean of at least three measurements, unit printed in Table 7, read-out: RSL3 Assay EC50, Mean) [nM]	EC50 (GM03665 cells; Table 7, 2 μM RSL3, 24 hours, MTT, read-out: RSL3 Assay EC50) [nM]
CC1(C)CC[C@]2(NC(=O)C(C)(F)F)CC[C@]3(C)[C@H](C(=O)C=C4[C@@]5(C)C=C(C#N)C(=O)C(C)(C)[C@@H]5CC[C@]43C)[C@@H]2C1 [Omaveloxolone, reference compound]	ability to circumvent BSO induced cell death; also recorded: displayed anti-ferroptotic activity; also recorded: active	positive and does	Active	inactive	Inactive	Inactive	do not possess both activities; also recorded: none of them are active in both assays	Inactive	not	Inactive	Inactive									
CC(C)=CCC/C(C)=C/CC/C(C)=C/CC[C@@](C)(O)CCC1=C(C)C(=O)C(C)=C(C)C1=O (stereo in doubt) [Vatiquinone, reference compound]	ability to circumvent BSO induced cell death; also recorded: active			inactive	Inactive	Inactive	do not possess both activities; also recorded: none of them are active in both assays	Inactive	not			< 100	> 3000	active						
COC1=C(OC)C(=O)C(CCCCCCCCCCO)=C(C)C1=O [Idebenone]	very weakly active/borderline inactive					70.2 +/− 15%	do not possess both activities; also recorded: none of them are active in both assays		ability to restore ATP production when Complex I is inhibited; also recorded: active											
(R)-2-(3-hydroxy-3-methyl-4-(3-(trimethylsilyl)propoxy)butyl)-3,5,6-trimethylcyclohexa-2,5-diene-1,4-dione [Compound M]	able to prevent ferroptotic cell death; also recorded: active	do not activate	Inactive			56.6 +/− 11.3%			active					active; also recorded: able to prevent ferroptotic cell death	61.2	best result; also recorded: effective inhibitors	1000 to 3000	1340	41.2	41.2
Cc1c(C)c2c(c(C)c1O)CC[C@@](C)(CCC=C(F)F)O2 [Compound 67, (R)-2-(4,4-difluorobut-3-en-1-yl)-2,5,7,8-tetramethylchroman-6-ol]							possess both activities													
CC1=C(C)C(=O)C(CC[C@@](C)(O)CC/C=C(\C)CCC=C(F)F)=C(C)C1=O [Compound L, (S,E)-2-(11,11-difluoro-3-hydroxy-3,7-dimethylundeca-6,10-dien-1-yl)-3,5,6-trimethylcyclohexa-2,5-diene-1,4-dione]	able to prevent ferroptotic cell death; also recorded: active	do not activate	Inactive			58.6 +/− 15.5%	possess both activities		active					active; also recorded: able to prevent ferroptotic cell death		active; also recorded: effective inhibitors				
